# Laboratory results taken from patent US20070026408A1, “Materials and methods for analysis of atp-binding cassette transporter gene expression” (priority 2003, published 2007).
# Counter-ions that a name gives are not always drawn.
# System: abcB11
# Assay: DT1 microarray drug screening, drug-treated HepG2: abcB11
# Type: cell-based, human
# Details: HepG2, vinblastine sulfate 25 nM, 8 h, standard 24
# Method: The labelled cDNA target preparation was thawed and the 150 μl added to 850 ul hybridisation buffer (500 mM sodium Phosphate pH 6.0, 1% SDS, 1% BSA, 1 mM EDTA) in a 1.5 ml microtube and heated at 95° C. for 10 min.
compound,measurement,value
"CC[C@]1(O)C[C@@H]2CN(CCc3c([nH]c4ccccc34)[C@@](C(=O)OC)(c3cc4c(cc3OC)N(C)[C@H]3[C@@](O)(C(=O)OC)[C@H](OC(C)=O)[C@]5(CC)C=CCN6CC[C@]43[C@@H]65)C2)C1 [vin, vinblastine sulfate]",relative level of abcB11 gene expression,9.053
